Reference: article PMC6406907, “A H2AX–CARP-1 Interaction Regulates Apoptosis Signaling Following DNA Damage” (Cancers, 2019)

Tested on: MDA-MB-468 cells
Test: Comet assay (DNA damage), MDA-MB-468
Format: cell-based, human
Design: Tail Moment (Mean) / Olive Tail Moment (Mean): unit not given here
Details: for percentage of tail DNA and tail moment: 10 μM, 1, 3, 6, 12 h, MDA-MB-468; for Tail Moment (Mean) / Olive Tail Moment (Mean) / %Tail DNA (Mean): MDA-MB-468, 10 µM; for Tail Moment (Mean): control 0.031056; for Olive Tail Moment (Mean): control 0.286711; for %Tail DNA (Mean): control 2.39052, alkaline electrophoresis, Vista Green
Protocol: The DNA damage assay was performed using a comet assay kit 96-well plate (Cell Bio Labs, CA, USA) as per the manufacturer’s instructions. Briefly, the cell suspension was mixed with the low-melting agarose at 1:20 ratio and added to the pre-coated 96 well plate. The cells were then subjected to lysis for 1 h, followed by alkaline electrophoresis. The plate was then washed in 70% ethanol and Vista Green DNA dye was added. The comets were visualized in Zeiss LSM780 Confocal microscope. The images were processed using Zeiss ZEN lite software and the comet parameters were measured using Open comet software.
Adriamycin is well known to induce DNA damage. Given the critical role of CARP-1 in apoptotic signaling by Adriamycin and CFM compounds, and the fact that stress-activated protein kinases (SAPKs) p38 and JNKs are activated in apoptosis signaling by CFM-4.16 [6, 12, 13, 14, 15, 16, 17, 18], we next determined whether CFM-4.16 also provoked DNA damage. We treated MDA-MB-468 and HeLa cells with a 10 μM dose of Adriamycin or CFM-4.16 for 1, 3, 6, and 12 h, followed by assessment of damaged DNA by the comet assay as described in Section 2. The presence of comet-like tails that contain the fragmented cellular DNA is a well-known marker/indicator of apoptosis. We measured the comet parameters such as percentage tail DNA and mean tail moment. […] Of note is the fact that Adriamycin and related anthracyclines intercalate between DNA bases and trap topoisomerase II (TopoII) in the double-strand cleavage form, thus introducing double-strand breaks (DSBs) due to TopoII poisoning. It remains to be clarified whether CFM-4.16 also targets cellular DNA and/or the associated DNA repair complex protein(s) to introduce DNA strand breaks, or activates caspase-activated DNAses to breakdown cellular genomic DNA.
Figure 2 Adriamycin and CFM-4.16 induce DNA damage. Cells were treated with the noted dose of respective compound for indicated time periods. Mean values for percentage tail DNA content (A,C) and Olive tail moment (B,D) for respective cells from control and treatment periods for each compound were measured using software recommended by the manufacturer of the kit for measurement of DNA damage (Cell Bio Labs, CA, USA). The columns in each chart indicate average values for respective treatment condition; bars, SE; * p ≤ 0.05.
Table S1. Adriamycin and CFM-4.16 stimulate DNA Damage in a time-dependent manner. MDA-MB-468 and HeLa cells were with noted dose of respective compound for indicated time periods.
Mean values for % tail DNA, Tail moment, and Olive tail moment for respective cells from control and treatment periods for each compound were measured using software recommended by the manufacturer of the kit for measurement of DNA damage (Cell Bio Labs, San Diego, CA, USA). The p values for each of the parameter are indicated below the mean values in each column for the treatment time period with each compound for both the cell lines.
Adriamycin (10 µM) CFM-4.16 (10 µM)

Compound	percentage of tail DNA and tail moment	Tail Moment (Mean) (1 h)	Olive Tail Moment (Mean) (1 h)	%Tail DNA (Mean) (1 h)	Tail Moment (Mean) (3 h)	Olive Tail Moment (Mean) (3 h)	%Tail DNA (Mean) (3 h)	Tail Moment (Mean) (6 h)	Olive Tail Moment (Mean) (6 h)	%Tail DNA (Mean) (6 h)	Tail Moment (Mean) (12 h)	Olive Tail Moment (Mean) (12 h)	%Tail DNA (Mean) (12 h)
COc1cccc2c1C(=O)c1c(O)c3c(c(O)c1C2=O)C[C@@](O)(C(=O)CO)C[C@@H]3O[C@H]1C[C@H](N)[C@H](O)[C@H](C)O1 [Adriamycin, doxorubicin, reference compound]	significantly increased	3.462	2.898	18.75%	14.01	9.946	25.75%	24.19	14.06	45.55%	43.07	20.46	63.02%
O=C1N(Cc2ccccc2Cl)c2ccccc2C12NN=C(c1cccc(Cl)c1)S2 (centres unmarked) [CFM-4.16]	significantly increased	0.1504	0.7773	2.507%	7.45	4.594	17.24%	25.29	13.06	36.18%	45.02	24.23	55.6%
